Test results taken from patent US9815783B2, “(3-alkylthio)propenoic acid-derived compounds and their application in cosmetics” (EXSYMOL, priority 2015, dated 2017).

Assays:
[1] = Antioxidant potential against squalene hydroperoxidation by singlet oxygen (quenching, methylene blue, UV-B, HPLC); conditions: UV-B radiation dose 1.42 J·cm−2, methylene blue photosensitizer
Procedure: Experimentally, a squalene solution at 5 g/100 mL, a methylene blue solution at 5 mM and a solution of the compound according to the invention (from 1 to 5 mM) or a control compound (methylthiopropylamido acetyl methionine-AMDM) were prepared after being dissolved in 100 mL of methanol (HPLC grade). Then in a UV-B oven, each solution was poured in equal parts into an uncovered Petri dish, in order to be submitted to a radiation dose (1D) of 1.42 J·cm^−2. At the end of the radiation, volumes of the solutions were recovered, adjusted to 20 mL with methanol prior to analysis by HPLC assay and after removal of methylene blue. The “quenching,” rate was then deduced from the following equation: [formula]

[2] = tested on: HaCaT keratinocytes; test: Viability of HaCaT keratinocytes exposed to UV-B cytotoxic doses (MTT method); format: cell-based; conditions: Homo sapiens, light or radiation study, UV-B 100 mJ/cm2, MTT after 24 hours, irradiated untreated control 46, non-irradiated 100, read-out: % cell viability; for viability at 100 µM: 0.1 mM in PBS; for viability at 250 µM: 0.25 mM in PBS; for viability at 500 µM: 0.5 mM in PBS
Procedure: Test 3: Evidence of the Ability of the (Z)-Isomer Conjugates of Formula (I) to Make Viable a Keratinocyte Cell Line Exposed to UV-B Cytotoxic Doses
Experimentally, the study was also carried out on a cell line of immortalized keratinocytes “HaCaT” seeded in 24-well plates at a rate of 8000 cells per square centimeter, namely 15200 cells per welkin 0.5 ml culture medium (with 10% foetal calf serum).
500 μl of the conjugate according to the invention were added in each well at a concentration from 0.05 to 0.5 mM in PBS. The cells in the presence of active ingredient were then exposed to ultraviolet radiations (UV-B) at the moderate dose of 100 mJ·cm−^2, and then placed into a medium without active ingredient for 24 hours. After removal of the medium, the HaCaT keratinocytes cell viability was also measured using the “MTT method” (solution at 250 μg/ml) and by spectrophotometry (absorbance at 570 nm). Gathering the average values obtained from three independent experiments, the results are presented in table 3 below, in comparison with those obtained for two controls, the non-irradiated cells and the non-treated irradiated cells with the conjugates according to the invention.

[3] = Photo-isomerization of (Z)-isomer conjugates to E-isomer under UV-B irradiation (HPLC); format: physicochemical; conditions: 2.5 mM in methanol with squalene; UV-B irradiation dose 1 J·cm−2; formation of E-isomer by HPLC
Procedure: Test 4: Evidence of the Ability of the (Z)-Isomer Conjugates of Formula (I) to Absorb Ultraviolet Radiation by Photo-Isomerization
Principle: the aim is to check whether the conjugates according to the invention are able to isomerize under UV-B irradiation.
Experimentally, 2 ml of a squalene solution at 5 g/100 mL and 2 mL of a solution of compound according to the invention at the concentration of 25 mM in methanol were introduced into a 20 mL measuring cylinder, and then supplemented with methanol up to 20 mL. The preparation thus obtained was poured into a Petri dish onto which an irradiation dose of 1 J·cm^−2 was applied in a UV-B oven. At the end of the irradiation, the solutions were collected and analyzed by HPLC dosage. Volumes were previously standardized with methanol.
Chromatographic profiles were thus obtained, and the formation of the E-isomer was investigated. An isomerization rate was then determined by comparison with a control profile.

[4] = Opposition to trans-urocanic acid photo-induced isomerization (HPLC); conditions: compound 5 mM, irradiation dose 31 mJ·cm−2
Procedure: Test 5: Evidence of the Ability of the (Z)-Isomer Conjugates of Formula (I) to Oppose the Trans-Urocanic Acid Photo-Induced Isomerization
Principle: the aim is to check whether the conjugates according to the invention are capable of opposing the trans-urocanic acid photo-isomerization.
Experimentally, the study was carried out almost identically as in tests 1 and 4 above. Beforehand, it was checked that under defined experimental conditions, trans-urocanic acid generates a significant amount of cis-urocanic acid that can be measured by HPLC analysis. The irradiation dose (1D) was 31 mJ·cm^−2 for a compound concentration of 5 mM.

[5] = tested on: HaCaT keratinocytes; test: Cytotoxic potential of sulfoxide and sulfone oxidation by-products on HaCaT keratinocytes (MTT method); format: cell-based; conditions: 2.5 mM in PBS, average of three independent experiments, control = 100
Procedure: Test 2: Evidence of the Absence of Cytotoxic Potential of the Oxidation by-Products of the (Z)-Isomer Conjugates of Formula (I)
Experimentally, the test was carried out on a cell line of immortalized keratinocytes “HaCaT” maintained by subculture in a complete culture medium “DMEM” (with 10% foetal calf serum) in a humid atmosphere at 37° C. and 5% CO2. HaCaT cells were seeded in 24-well plates at the rate of 1·10^5 cells per well.
Sulfoxide and sulfone derivatives of (Z)-isomer conjugates of formula (I) were synthesized after a stoichiometric exposure to hydrogen peroxide (H2O2), then purified and finally quantified.
500 μl of sulfoxide and sulfone oxidation by-products from the conjugates according to the invention were added in each well, at the concentration of 2.5 mM in PBS. After removal of the medium, the HaCaT keratinocytes cell viability was measured using the “MTT method” (MTT standing for (4,5-dimethylthiazol-2-yl)-2,5-diphenyltetrazolium bromide) (solution at 500 μg/ml) and by spectrophotometry (absorbance at 550 nm). Expressed as the average values obtained from three independent experiments, the results are gathered in table 2 below, in comparison with those obtained for the non-irradiated cells.

## CS/C=C/C(=O)NCCO [(E)-N-(2-hydroxyethyl)-3-(methylthio)propenamide]
[1]; compound 1 mM in methanol
  % squalene protection: 71%

## CS/C=C/C(=O)NCCc1ccc(O)cc1 [(E)-N-(4-hydroxyphenethyl)-3-(methylthio)propenamide]
[1]; compound 1 mM in methanol
  % squalene protection: 30%

## CS/C=C\C(=O)NCCO [(Z)-N-(2-hydroxyethyl)-3-(methylthio)propenamide]
[2]
  viability at 100 µM: 64%
  viability at 250 µM: 85%
  viability at 500 µM: 94%
[3]
  % isomerization: 62%
[1]; compound 1 mM in methanol
  % squalene protection: 24%
[1]; compound 5 mM in methanol
  % squalene protection: 25%
[4]
  % inhibition of trans-urocanic acid photo-isomerization: 75%

## CS(=O)(=S)/C=C\C(=O)NCCO (stereo not shown) [(Z)-N-(2-hydroxyethyl)-3-(methylthiosulfonyl)propenamide]
[5]
  % cell viability: 93.1%

## CS/C=C\C(=O)NCCc1ccc(O)cc1 [(Z)-N-(4-hydroxyphenethyl)-3-(methylthio)propenamide]
[2]
  viability at 100 µM: 70%
  viability at 250 µM: 93%
  viability at 500 µM: 100%
[3]
  % isomerization: 95%
[1]; compound 1 mM in methanol
  % squalene protection: 35%
[1]; compound 5 mM in methanol
  % squalene protection: 44%
[4]
  % inhibition of trans-urocanic acid photo-isomerization: 78%

## CS(=O)(=S)/C=C\C(=O)NCCc1ccc(O)cc1 (stereo not shown) [(Z)-N-(4-hydroxyphenethyl)-3-(methylthiosulfonyl)propenamide]
[5]
  % cell viability: 95.0%

## CCNC(=O)/C=C\SC [(Z)-N-ethyl-3-(methylthio)propenamide]
[2]
  viability at 500 µM: 86%
[3]
  % isomerization: 60%

## CSCCCNC(=O)C(CCSC)NC(C)=O (stereo not shown) [AMDM, methylthiopropylamido acetyl methionine, reference compound]
[1]; compound 1 mM in methanol
  % squalene protection: 3%
[1]; compound 5 mM in methanol
  % squalene protection: 15%
